The source of these data is patent publication US20250170099A1, “TREATMENT OF POSTNATAL DEPRESSION” (GH RESEARCH IRELAND LIMITED, priority 2022, published 2025).

Data set [1] is described as follows: Pharmacokinetics of 5-MeO-DMT and bufotenine after inhalation. In kind it is in vivo, human. The conditions noted are these: within 1 to 4 hours.
Data set [2] deals with Salmonella typhimurium TA98, TA100, TA1535, TA1537 and Escherichia coli WP2 uvrA pKM101. In words: Bacterial mutation test. The class given is cell-based. As to the method: These conditions included treatments at concentrations up to 5000 μg/plate (the maximum recommended concentration according to current regulatory guidelines), in the absence and in the presence of a rat liver metabolic activation system (S-9).

On to `COc1ccc2[nH]cc(CCN(C)C)c2c1` [5-MeO-DMT], for which, in data set [1], the “accumulation upon repeated administration” value is reported as “No accumulation”. The “in vitro genotoxicity assessment” value in data set [2] is on record as “negative”. The mutation induction entry in data set [2] (up to 5000 μg/plate, without and with S-9) is listed as “did not induce mutation”.
